Source: patent US7704995B2 (Exelixis, Inc., priority 2003, dated 2010)

Assays:
Assay type in all cases: biochemical
EMK = EMK (Homo sapiens, UniProt Q7KZI7); test: Kinase specificity assay (33P phosphoryl transfer, LCCA or AlphaScreen); conditions: ATP close to KM; read-out: EMK inhibition, IC50
EphA2R = EphA2R (Homo sapiens, UniProt P29317); test: as above; conditions: ATP close to KM; read-out: EphA2R inhibition, IC50
PDGFR-β = PDGFR-β (Homo sapiens, UniProt P09619); test: as above; conditions: ATP close to KM; read-out: PDGFR-β inhibition, IC50
Fyn = Fyn (Homo sapiens, UniProt P06241); test: as above; conditions: ATP close to KM; read-out: Fyn inhibition, IC50
Chk2 = target: T1, Chk2 (Homo sapiens, UniProt O96017); test: Chk2 kinase assay: incorporation of γ-33P ATP into immobilized myelin basic protein; conditions: 20 nM Chk2, 30 μM unlabeled ATP, 1 hour at room temperature; read-out: Chk2 inhibition, IC50
T1 construct: purchased Upstate Biotechnology
Method: Chk1 and Chk2 assays were performed by measuring incorporation of γ-^33P ATP into immobilized myelin basic protein (MBP). High binding white 384 well plates (Greiner) were coated with MBP (Sigma #M-1891) by incubation of 60 ul/well of 20 μg/ml MBP in Tris-buffered saline (TBS; 50 mM Tris pH 8.0, 138 mM NaCl, 2.7 mM KCl) for 24 hours at 4° C. Plates were washed 3× with 100 μl TBS. Kinase reactions were carried out in a total volume of 34 μl in kinase buffer (5 mM Hepes pH 7.6, 15 mM NaCl, 0.01% bovine gamma globulin (Sigma #I-5506), 10 mM MgCl2, 1 mM DTT, 0.02% TritonX-100). Compound dilutions were performed in DMSO and added to assay wells to a final DMSO concentration of 1%. Each data point was measured in duplicate, and at least two duplicate assays were performed for each individual compound determination. […] A mixture of unlabeled ATP and γ-^33P ATP was added to start the reaction (2×10^6 cpm of γ-^33P ATP per well (3000 Ci/mmole) and either 10 μM or 30 μM unlabeled ATP (for Chk1 and Chk2 assays respectively). The reaction was carried out for 1 hour at room temperature with shaking. Plates were washed 7× with TBS, followed by the addition of 50 μl/well scintillation fluid (Wallac). Plates were read using a Wallac Trilux counter. This is only one format of such assays, various other formats are possible, as known to those skilled in the art. […]

Chain of PDGFR-β (P09619 33-1106): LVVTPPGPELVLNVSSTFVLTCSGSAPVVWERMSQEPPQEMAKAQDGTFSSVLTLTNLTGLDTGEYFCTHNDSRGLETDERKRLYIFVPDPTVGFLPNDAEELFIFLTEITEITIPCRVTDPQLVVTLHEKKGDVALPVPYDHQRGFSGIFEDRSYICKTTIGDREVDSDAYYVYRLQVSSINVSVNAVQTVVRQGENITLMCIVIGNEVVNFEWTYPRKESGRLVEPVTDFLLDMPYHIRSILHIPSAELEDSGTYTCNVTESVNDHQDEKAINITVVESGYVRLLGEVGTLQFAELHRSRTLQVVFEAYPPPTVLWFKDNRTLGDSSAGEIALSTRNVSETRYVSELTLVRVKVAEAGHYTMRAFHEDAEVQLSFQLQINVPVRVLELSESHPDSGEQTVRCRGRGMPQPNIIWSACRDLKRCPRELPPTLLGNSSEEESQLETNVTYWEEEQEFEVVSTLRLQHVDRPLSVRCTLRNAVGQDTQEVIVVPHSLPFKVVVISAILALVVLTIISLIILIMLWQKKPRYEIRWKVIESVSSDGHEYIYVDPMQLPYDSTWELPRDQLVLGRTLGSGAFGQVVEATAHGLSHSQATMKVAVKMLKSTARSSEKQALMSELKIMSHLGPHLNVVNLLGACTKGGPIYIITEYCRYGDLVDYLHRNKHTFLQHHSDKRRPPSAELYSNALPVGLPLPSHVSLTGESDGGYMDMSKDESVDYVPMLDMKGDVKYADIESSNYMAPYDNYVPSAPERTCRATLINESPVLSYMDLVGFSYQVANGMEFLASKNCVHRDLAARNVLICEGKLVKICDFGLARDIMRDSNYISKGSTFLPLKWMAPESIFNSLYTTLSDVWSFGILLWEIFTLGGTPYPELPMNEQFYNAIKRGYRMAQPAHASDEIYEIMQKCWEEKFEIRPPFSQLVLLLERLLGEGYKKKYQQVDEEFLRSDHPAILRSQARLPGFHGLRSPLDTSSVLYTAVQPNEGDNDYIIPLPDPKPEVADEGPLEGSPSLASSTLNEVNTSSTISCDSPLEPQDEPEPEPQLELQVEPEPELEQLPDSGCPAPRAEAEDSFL
Chain of Fyn (P06241 whole entry): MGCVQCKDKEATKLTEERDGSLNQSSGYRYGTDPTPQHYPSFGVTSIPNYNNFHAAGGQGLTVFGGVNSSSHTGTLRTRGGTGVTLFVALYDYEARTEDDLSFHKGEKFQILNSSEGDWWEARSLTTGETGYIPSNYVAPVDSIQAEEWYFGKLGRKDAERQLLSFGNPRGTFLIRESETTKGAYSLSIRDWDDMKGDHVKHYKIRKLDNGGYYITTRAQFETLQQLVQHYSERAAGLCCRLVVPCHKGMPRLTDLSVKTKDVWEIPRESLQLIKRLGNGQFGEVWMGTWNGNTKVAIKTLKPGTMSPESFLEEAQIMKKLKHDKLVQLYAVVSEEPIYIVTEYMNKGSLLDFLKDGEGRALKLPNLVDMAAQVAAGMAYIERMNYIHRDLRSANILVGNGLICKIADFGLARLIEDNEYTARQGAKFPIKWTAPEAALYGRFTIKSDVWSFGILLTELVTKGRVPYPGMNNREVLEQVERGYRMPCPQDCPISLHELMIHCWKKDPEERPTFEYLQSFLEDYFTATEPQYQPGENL
Chain of EphA2R (P29317 24-976): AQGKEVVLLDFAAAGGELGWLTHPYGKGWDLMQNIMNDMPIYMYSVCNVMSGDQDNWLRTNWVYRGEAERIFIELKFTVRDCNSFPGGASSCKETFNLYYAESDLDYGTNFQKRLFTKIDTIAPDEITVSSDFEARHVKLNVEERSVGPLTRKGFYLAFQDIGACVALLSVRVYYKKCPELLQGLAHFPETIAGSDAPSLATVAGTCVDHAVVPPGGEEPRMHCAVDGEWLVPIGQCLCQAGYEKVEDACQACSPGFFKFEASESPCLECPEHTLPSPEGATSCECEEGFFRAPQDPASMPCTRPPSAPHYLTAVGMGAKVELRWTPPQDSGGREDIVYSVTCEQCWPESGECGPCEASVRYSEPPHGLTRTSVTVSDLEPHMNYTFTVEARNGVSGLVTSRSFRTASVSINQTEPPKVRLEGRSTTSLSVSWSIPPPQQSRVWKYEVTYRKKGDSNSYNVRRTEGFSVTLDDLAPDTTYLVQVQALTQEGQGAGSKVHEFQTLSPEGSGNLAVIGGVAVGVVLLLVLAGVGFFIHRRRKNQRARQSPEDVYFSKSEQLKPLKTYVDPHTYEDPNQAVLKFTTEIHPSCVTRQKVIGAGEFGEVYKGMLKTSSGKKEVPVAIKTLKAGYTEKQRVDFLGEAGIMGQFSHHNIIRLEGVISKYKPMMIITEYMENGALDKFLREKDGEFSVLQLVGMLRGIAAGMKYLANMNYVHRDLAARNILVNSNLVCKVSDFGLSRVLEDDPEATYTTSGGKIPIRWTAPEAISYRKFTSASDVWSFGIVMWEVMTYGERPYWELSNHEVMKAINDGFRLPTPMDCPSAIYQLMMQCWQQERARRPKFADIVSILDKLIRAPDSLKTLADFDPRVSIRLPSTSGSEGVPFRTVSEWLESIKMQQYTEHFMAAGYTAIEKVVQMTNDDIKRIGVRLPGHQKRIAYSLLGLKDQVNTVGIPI
Chain of EMK (Q7KZI7 whole entry): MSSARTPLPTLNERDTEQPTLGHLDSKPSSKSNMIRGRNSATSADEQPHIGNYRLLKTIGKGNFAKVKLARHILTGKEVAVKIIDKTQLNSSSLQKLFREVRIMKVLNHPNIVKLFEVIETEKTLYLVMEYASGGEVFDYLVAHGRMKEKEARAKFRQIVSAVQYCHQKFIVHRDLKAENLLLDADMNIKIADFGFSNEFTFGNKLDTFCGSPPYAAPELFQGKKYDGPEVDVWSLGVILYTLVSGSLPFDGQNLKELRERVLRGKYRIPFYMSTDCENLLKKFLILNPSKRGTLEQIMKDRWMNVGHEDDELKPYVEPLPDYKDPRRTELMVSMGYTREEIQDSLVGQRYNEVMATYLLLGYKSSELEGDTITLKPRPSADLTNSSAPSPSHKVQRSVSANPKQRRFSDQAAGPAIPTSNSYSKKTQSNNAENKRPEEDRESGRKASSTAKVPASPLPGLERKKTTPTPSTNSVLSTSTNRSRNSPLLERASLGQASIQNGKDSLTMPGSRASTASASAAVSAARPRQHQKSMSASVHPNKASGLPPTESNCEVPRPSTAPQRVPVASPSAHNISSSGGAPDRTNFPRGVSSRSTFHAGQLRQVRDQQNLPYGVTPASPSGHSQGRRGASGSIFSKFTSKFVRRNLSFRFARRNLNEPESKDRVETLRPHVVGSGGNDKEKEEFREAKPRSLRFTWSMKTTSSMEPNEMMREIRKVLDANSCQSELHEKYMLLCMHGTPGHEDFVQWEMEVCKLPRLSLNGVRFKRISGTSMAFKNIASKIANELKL
T1 sequence (O96017 whole entry): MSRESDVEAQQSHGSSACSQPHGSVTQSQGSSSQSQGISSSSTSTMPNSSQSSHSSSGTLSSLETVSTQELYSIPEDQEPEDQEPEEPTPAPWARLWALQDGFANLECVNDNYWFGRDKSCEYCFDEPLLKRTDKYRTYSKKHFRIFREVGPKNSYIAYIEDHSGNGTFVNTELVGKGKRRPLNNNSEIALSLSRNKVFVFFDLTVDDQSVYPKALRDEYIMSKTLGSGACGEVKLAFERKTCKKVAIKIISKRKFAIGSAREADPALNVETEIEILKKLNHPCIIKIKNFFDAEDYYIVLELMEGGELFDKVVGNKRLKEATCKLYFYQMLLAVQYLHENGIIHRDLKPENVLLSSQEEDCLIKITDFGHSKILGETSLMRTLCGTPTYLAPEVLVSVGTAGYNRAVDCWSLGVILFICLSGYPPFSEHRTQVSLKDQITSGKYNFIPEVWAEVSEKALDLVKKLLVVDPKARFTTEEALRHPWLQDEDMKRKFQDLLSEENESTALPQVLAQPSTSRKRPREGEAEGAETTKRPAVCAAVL

Q: For NC(=O)c1nc(-c2cccc3ccccc23)cnc1N [Example 2, 3-Amino-6-naphthalen-1-ylpyrazine-2-carboxamide], which IC50 (EMK) is on record?
A: Its IC50 is 1 to 10 µM.

Q: And the IC50 (EphA2R)?
A: Its IC50 is at least 10 µM.

Q: And the IC50 (PDGFR-β)?
A: The IC50 was 50 to 1000 nM.

Q: And the IC50 (Fyn)?
A: Its IC50 is 1 to 10 µM.

Q: And the IC50 (Chk2)?
A: The IC50 was under 50 nM.
